Experimental data as given in patent publication US20260165323A1, “USE OF STROBILURIN TYPE COMPOUNDS FOR COMBATING PHYTOPATHOGENIC FUNGI CONTAINING AN AMINO ACID SUBSTITUTION F129L IN THE MITOCHONDRIAL CYTOCHROME B PROTEIN CONFERRING RESISTANCE TO QO […]” (priority 2022, published 2026).

Tests used:
Type in all cases: in vivo
[1] = tested on: Phakopsora pachyrhizi containing the amino acid substitution F129L in the mitochondrial cytochrome b protein; assay: Use Example 1: protective control of soybean rust on soybeans (PHAKPA P2); settings: inoculated 2 days after spraying, % diseased leaf area
Method in brief: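 Soybean seedling leaves sprayed to run-off with compound in acetone/DMSO–Wettol–water at the stated concentration, kept 2 days at 23-27° C, then inoculated with Qo-inhibitor-resistant F129L P. pachyrhizi. After 24 h at ~95% RH, 20-24° C, and up to 14 days in greenhouse, % diseased leaf area scored visually.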

[2] = tested on: Puccinia recondita; assay: Use Example 4: preventative control of brown rust on wheat (PUCCRT P7); settings: inoculated seven days after spraying, % diseased leaf area
Method in brief: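 First two leaves of potted wheat seedlings sprayed to run-off with compound in acetone/DMSO–emulsifier–water, then inoculated with Puccinia recondita spores seven days later. Plants held 24 h dark at 95–99% RH and 20–24 °C, then 9–11 days in greenhouse; diseased leaf area (%) scored visually.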

[3] = tested on: Phakopsora pachyrhizi containing the amino acid substitution F129L in the mitochondrial cytochrome b protein; assay: Use Example 2: protective control of soybean rust on soybeans (PHAKPA P6); settings: inoculated six days after spraying, % diseased leaf area
Method in brief: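 Compound in acetone and/or DMSO with Wettol (99:1), diluted with water, was sprayed to run-off on potted soybean seedlings. After six days at 23–27°C and 60–80% RH, plants were inoculated with a Qo-resistant F129L strain and held 24 h at about 95% RH. Percent diseased leaf area was scored visually after up to 14 days.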

[4] = tested on: Puccinia recondita; assay: Use Example 3: curative control of brown rust on wheat (PUCCRT K4); settings: % diseased leaf area
Method in brief: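 Wheat seedlings inoculated with Puccinia recondita spores, held 24 h at 95–99% RH, 20–24° C in dark, then 3 days in greenhouse before spraying to run-off (curative). Compound in acetone/DMSO–Wettol–water. After 5–7 further days at 20–24° C, 65–70% RH, % diseased leaf area scored visually.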

Compound	% PHAKPA (F129L) Disease level P2 at 4 ppm [1]	% PHAKPA (F129L) Disease level P2 at 16 ppm [1]	% PUCCRT Disease level P7 at 4 ppm [2]	% PUCCRT Disease level P7 at 16 ppm [2]	% PHAKPA (F129L) Disease level P6 at 4 ppm [3]	% PHAKPA (F129L) Disease level P6 at 16 ppm [3]	% PUCCRT Disease level K4 at 4 ppm [4]	% PUCCRT Disease level K4 at 16 ppm [4]
CO/C=C(/C(=O)OC)c1cccc(Cl)c1CO/N=C(\COC)c1cccc(Cl)c1 [compound 39]	2%	0%	3%	0%	10%	1%	9%	1%
CCOC/C(=N\OCc1c(Cl)cccc1/C(=N\OC)C(=O)NC)c1ccccc1 [compound 55]	37%	1%	53%	29%	40%	9%	77%	47%
CNC(=O)/C(=N/OC)c1cccc(Cl)c1CO/N=C(\COC)c1cccc(Cl)c1 [compound 43]	6%	0%	10%	3%	20%	2%	72%	10%
CNC(=O)/C(=N/OC)c1cccc(Cl)c1CO/N=C(\COC)c1cccc(OC)c1 [compound 119]	32%	0%	13%	1%	36%	5%	42%	2%
CO/C=C(/C(=O)OC)c1cccc(Cl)c1CO/N=C(\COC)c1ccccc1C [compound 123]	41%	2%	77%	33%	38%	7%	72%	21%
CNC(=O)/C(=N/OC)c1cccc(Cl)c1CO/N=C(\COC)c1ccc(F)cc1 [compound 2, (2E)-2-[3-chloro-2-[[(Z)-[1-(4-fluorophenyl)-2-methoxyethylidene]amino]oxymethyl]phenyl]-2-methoxyimino-N-methyl-acetamide]	16%	0%	15%	5%	0%	1%	63%	4%
CCOC/C(=N\OCc1c(F)cccc1/C(=C\OC)C(=O)OC)c1ccc(F)cc1 [compound 16]	20%	4%	80%	43%	70%	17%	83%	57%
CNC(=O)/C(=N/OC)c1cccc(Cl)c1CO/N=C(\COC)c1cc(F)c(F)c(F)c1 [compound 74]	12%	2%	12%	3%	1%	0%	37%	3%
CCOCC(=NOCc1c(Cl)cccc1C(=COC)C(=O)OC)c1ccccc1 [compound 54]	21%	1%	75%	27%	20%	3%	77%	30%
CCOC/C(=N\OCc1c(Cl)cccc1/C(=C\OC)C(=O)OC)c1ccc(Cl)cc1 [compound 45]	60%	8%	82%	27%	70%	15%	80%	68%
CO/C=C(/C(=O)OC)c1cccc(Cl)c1CO/N=C(\COC)c1ccc(Cl)cc1F [compound 106]	14%	1%	19%	2%	8%	1%	28%	4%
CO/C=C(/C(=O)OC)c1cccc(Cl)c1CO/N=C(\COC)c1ccc(F)c(F)c1F [compound 101]	2%	0%	54%	3%	6%	0%	35%	3%
CO/C=C(/C(=O)OC)c1cccc(Br)c1CO/N=C(/C#Cc1ccc(F)cc1)COC [compound 8, Methyl-(E)-2-[3-bromo-2-[[(Z)-[3-(4-fluorophenyl)-1-(methoxymethyl)prop-2-ynylidene]amino]oxymethyl]phenyl]-3-methoxy-prop-2-enoate]	2%	0%	0%	0%	12%	0%	6%	0%
CNC(=O)/C(=N/OC)c1cccc(Cl)c1CO/N=C(\COC)c1cccc(C#N)c1 [compound 117]	59%	5%	14%	1%	34%	8%	18%	0%
CO/C=C(/C(=O)OC)c1cccc(Cl)c1CO/N=C(\COC)c1cccc(Cl)c1F [compound 76]	10%	1%	35%	3%	0%	0%	41%	2%
COC/C(=N\OCc1c(Cl)cccc1/C(=N\OC)C(=O)OC)c1cccc(F)c1 [compound 25]	82%	23%	35%	5%	90%	58%	83%	78%
